Assay results published in patent US20210340130A1, “Compositions and methods for treating attention deficit disorders” (priority 2016, published 2021).
Converted amounts (≈) assume the structure as drawn. Where two headings read alike, the source gives them in different places.

Legend:
Male Sprague-Dawley rats = test: Spontaneous locomotor activity (LMA) and rearing in rats; assay type: in vivo
Protocol: Behavioral tests of locomotor activity were conducted to determine the effects of exemplary low impact ampakines CX717 and CX1739 on normal, and amphetamine-stimulated activity in animal behavioral models. […] Male Sprague-Dawley rats (175-200 g; Charles River Laboratories) were given ad libitum food and water and maintained on a 12:12 hr light: dark cycle with lights on at 6:00 a.m. Each of ten test cages (standard polycarbonate animal cage; 26 cm×48 cm×20 cm; W×L×H) were surrounded by two photo beam arrays, placed to detect locomotor activity with a lower array and rearing behavior with an upper array. Locomotor and rearing activity were continuously monitored and recorded by computer for all ten test cages (Photo beam Activity System, San Diego Instruments, San Diego, Calif.). The test period was chosen as the 1st few hours of the dark period of the light: dark cycle. Approximately 15 min before the start of the dark cycle, the rats were removed from the housing facility, transported to the testing room and injected with CX717, CX1739 or vehicle and placed into photo beam activity cages. Immediately after all rats were injected the room lights were turned off and spontaneous activity data were collected for the next four hours. CX717 and CX1739 groups (0.1 to 10 mg/kg) were compared to the vehicle group.

[1] = Phase 1 studies (safety, tolerability, pharmacokinetics); assay type: in vivo
acetylcholine esterase = acetylcholine esterase (Homo sapiens, UniProt P22303); test: Acetylcholine esterase functional inhibition; assay type: biochemical
[2] = Limit of solubility (in ACSF perfusion); assay type: physicochemical; conditions: artificial cerebral spinal fluid (ACSF), aqueous buffer, kinetic from dmso stock

Chain of acetylcholine esterase (P22303 32-614): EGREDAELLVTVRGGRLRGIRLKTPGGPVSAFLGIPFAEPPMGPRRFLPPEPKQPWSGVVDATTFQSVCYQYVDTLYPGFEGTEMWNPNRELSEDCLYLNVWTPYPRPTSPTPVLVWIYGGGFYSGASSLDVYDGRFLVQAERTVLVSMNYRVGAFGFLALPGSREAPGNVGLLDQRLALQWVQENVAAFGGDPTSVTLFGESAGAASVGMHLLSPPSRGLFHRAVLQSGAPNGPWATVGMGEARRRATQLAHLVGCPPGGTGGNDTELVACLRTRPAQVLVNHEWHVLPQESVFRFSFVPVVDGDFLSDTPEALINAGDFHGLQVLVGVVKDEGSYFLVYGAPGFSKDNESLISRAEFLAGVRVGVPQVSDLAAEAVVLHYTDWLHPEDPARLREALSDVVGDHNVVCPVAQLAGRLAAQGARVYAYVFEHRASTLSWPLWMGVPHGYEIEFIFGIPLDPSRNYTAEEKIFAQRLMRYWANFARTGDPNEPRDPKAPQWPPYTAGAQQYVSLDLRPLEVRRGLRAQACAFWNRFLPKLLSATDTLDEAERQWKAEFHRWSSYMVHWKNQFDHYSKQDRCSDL

What does the source list for `O=C(c1ccc2nonc2c1)N1CCOCC1` [CX717, 1-(benzofurazan-5-ylcarbonyl)morpholine]?
spontaneous rearing (Male Sprague-Dawley rats; 10 mg/kg vs. vehicle, p<0.01): significant decrease; pharmacodynamics of the effect on rearing behavior (Male Sprague-Dawley rats; 10 mpk, 1, 2, 3 and 4 hours post treatment): prolonged action; spontaneous locomotor activity (Male Sprague-Dawley rats; first hour following ip administration, ANOVA=0.45): no effect; absorption ([1]; human): dose-proportional manner; half-life ([1]; human, in vivo, read-out: elimination half-life (t1/2)): 9 to 10 h; Tmax ([1]; human, in vivo, read-out: time-to-maximum concentration (tmax)): 4 to 5 h; tolerability in healthy volunteers ([1]; in vivo): well-tolerated with no serious AEs; Ki (acetylcholine esterase): 165 µM; inhibition at 100 µM (acetylcholine esterase; 100 μM): 53%

With `CN(C(=O)c1ccc2nonc2c1)C1CCOCC1` [CX1739, N-Methyl-N-tetrahydro-2H-pyran-4-yl-[2,1,3]-benzoxadiazole-5-carboxamide] as the molecule, how does the solubility ([2]; read-out: limit of solubility) read?
Its solubility is 200 µM (≈ 52.3 µg/mL).

What about the solubility ([2]; read-out: limit of the drug's solubility) of the same molecule?
Its solubility is roughly 200 µM (≈ 52.3 µg/mL).
